Holding throughout (type): biochemical, Lithobates sylvaticus
For test [1], the system named is T1, Free AMPD (wood frog skeletal muscle, control frogs).
T1 construct: gene AMPD1; native, soluble (free) form in skeletal muscle extract of 5°C-acclimated control frogs, Sephadex G-50 desalted, not purified
Put plainly: AMP deaminase activity, […] nm absorbance, Hill fit. The settings on record: after Sephadex G-50 desalting, Hill coefficient 2.37, pH 7.2, 25°C, read-out: After spun columns.

Test [2] relates to T2, Bound AMPD (wood frog skeletal muscle, control frogs).
T2 construct: gene AMPD1; low phosphate form; not purified
Put plainly: AMP deaminase activity, glutamate dehydrogenase-coupled, NADH […] nm, Hill fit. The settings on record: Hill coefficient 1.03, pH 7.2, 25°C, no glucose, bound enzyme, read-out: S0.5 AMP.

Test [3] relates to T3, Bound AMPD (wood frog skeletal muscle, frozen frogs).
T3 construct: gene AMPD1; high phosphate form (sites not known); not purified
The test is described as above. The settings on record: Hill coefficient 1.12, pH 7.2, 25°C, no glucose, bound enzyme, read-out: S0.5 AMP.

In test [4] the target is T3, Bound AMPD (wood frog skeletal muscle, frozen frogs). Description: AMP deaminase activity, glutamate dehydrogenase-coupled, NADH […] nm. The settings on record: activation constant (half-maximal activation, 3.42-fold), as Mg·ADP, 0.5 mM AMP, pH 7.2, 25°C, bound enzyme, allosteric.
In test [5] the target is T2, Bound AMPD (wood frog skeletal muscle, control frogs). The description is as above. The following applies: activation constant (half-maximal activation, 1.25-fold), as Mg·ADP, 0.5 mM AMP, pH 7.2, 25°C, bound enzyme, allosteric.
For test [6], the target named is T1, Free AMPD (wood frog skeletal muscle, control frogs). Put plainly: AMP deaminase activity, […] nm absorbance. The following applies: 0.5 mM AMP, pH 7.2, 25°C, allosteric.
The target is the same in test [7]. Put plainly: AMP deaminase activity, […] nm absorbance. The following applies: as Mg·GTP, 0.5 mM AMP, pH 7.2, 25°C, allosteric.
In test [8] the target is T3, Bound AMPD (wood frog skeletal muscle, frozen frogs). Description: AMP deaminase activity, glutamate dehydrogenase-coupled, NADH […] nm. The settings on record: as Mg·GTP, 0.5 mM AMP, pH 7.2, 25°C, bound enzyme, allosteric.
Test [9] addresses T2, Bound AMPD (wood frog skeletal muscle, control frogs). The description is as above. The settings on record: as Mg·GTP, 0.5 mM AMP, pH 7.2, 25°C, bound enzyme, allosteric.

Consider `Nc1ncnc2c1ncn2[C@@H]1O[C@H](COP(=O)(O)O)[C@@H](O)[C@H]1O` [AMP], for which the Km in test [1] was 1350 ± 80 µM; in test [2] it was 460 ± 30 µM; in test [3], 1500 ± 190 µM.
The EC50 is the midpoint of the concentration-response curve. Read a high EC50 as a need for much substance. For the compound `Nc1ncnc2c1ncn2[C@@H]1O[C@H](COP(=O)(O)OP(=O)(O)O)[C@@H](O)[C@H]1O` [Mg·ADP], the EC50 came to 1140 ± 100 µM in test [4]; 3750 ± 370 µM in test [5]; 1120 ± 150 µM in test [6] (activation constant (half-maximal activation, 2.17-fold), as Mg·ADP).
With `Nc1ncnc2c1ncn2[C@@H]1O[C@H](COP(=O)(O)OP(=O)(O)OP(=O)(O)O)[C@@H](O)[C@H]1O` [Mg·ATP], the EC50 in test [6] (activation constant (half-maximal activation, 1.53-fold), as Mg·ATP) turned out to be 1900 ± 30 µM.
Usually IC50 stands for the concentration that inhibits the measured activity by half. Read a low IC50 as greater potency. For `Nc1nc2c(ncn2[C@@H]2O[C@H](COP(=O)(O)OP(=O)(O)OP(=O)(O)O)[C@@H](O)[C@H]2O)c(=O)[nH]1` [Mg·GTP], the IC50 in [7] worked out at 150 ± 20 µM; in test [8], 100 ± 10 µM; in test [9], 80 ± 10 µM.

The values above are taken from PMC2375871, “Regulation of 5'-adenosine monophosphate deaminase in the freeze tolerant wood frog, Rana sylvatica” (BMC Biochemistry, 2008).
